In patent US8829030B2 (priority 2002, dated 2014):
Where two headings read alike, the source gives them in different places.

Target: recombinant HCV RNA-dependent RNA polymerase (NS5B protein) (Hepatitis C virus genotype 1b, UniProt P26663)
Experiment: biochemical
Set-up: species or system HCV-Bk strain
[1] = read-out: Activity (polymerase activity, IC50)

recombinant HCV RNA-dependent RNA polymerase (NS5B protein), sequence (P26663 2420-3010 limits assumed): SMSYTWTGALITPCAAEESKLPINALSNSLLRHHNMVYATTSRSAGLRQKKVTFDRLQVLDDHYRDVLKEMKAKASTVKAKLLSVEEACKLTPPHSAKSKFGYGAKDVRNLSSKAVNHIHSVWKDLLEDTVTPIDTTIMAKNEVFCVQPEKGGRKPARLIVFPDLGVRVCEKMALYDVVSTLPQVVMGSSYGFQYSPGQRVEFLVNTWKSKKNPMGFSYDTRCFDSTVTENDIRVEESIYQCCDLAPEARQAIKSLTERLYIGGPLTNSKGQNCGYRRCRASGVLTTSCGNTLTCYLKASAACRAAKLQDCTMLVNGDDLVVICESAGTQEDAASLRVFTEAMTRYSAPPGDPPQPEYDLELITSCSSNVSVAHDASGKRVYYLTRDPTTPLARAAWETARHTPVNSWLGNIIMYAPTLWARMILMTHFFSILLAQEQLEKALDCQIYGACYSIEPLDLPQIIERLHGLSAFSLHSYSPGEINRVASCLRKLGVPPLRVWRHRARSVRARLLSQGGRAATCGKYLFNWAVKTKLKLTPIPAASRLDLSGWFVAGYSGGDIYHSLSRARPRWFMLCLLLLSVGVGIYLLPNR

Work on `CC(=O)c1ccc(-c2cc(N(C(=O)[C@H]3CC[C@H](C)CC3)[C@H]3CC[C@H](O)CC3)c(C(=O)O)s2)s1` [Compound 80, 5′-acetyl-4-[(4-hydroxy-cyclohexyl)-(4-methyl-cyclohexanecarbonyl)-amino]-[2,2′]bithiophenyl-5-carboxylic acid] yielded an IC50 of less than 5 µM.
`CC1CCC(C(=O)N(c2cc(-c3ccccc3)sc2C(=O)O)C(C)CN=[N+]=[N-])CC1` (centres unmarked) [Compound 32, 3-[(2-azido-1-methyl-ethyl)-(4-methyl-cyclohexanecarbonyl)-amino]-5-phenyl-thiophene-2-carboxylic acid] was tested, and the IC50 was less than 5 µM.
Work on `CC1CCC(C(=O)N(CC2CCCCN2)c2cc(-c3ccccc3)sc2C(=O)O)CC1` (centres unmarked) [Compound 2, 2-{[(2-carboxy-5-phenyl-thiophen-3-yl)-(4-methyl-cyclohexanecarbonyl)-amino]-methyl}-piperidinium; trifluoro-acetate] yielded an IC50 of less than 5 µM.
`CC1CCC(C(=O)N(c2cc(-c3ccc(Cl)cc3)sc2C(=O)O)C2CCC(O)CC2)CC1` (centres unmarked) [Compound 59, 5-(4-chloro-phenyl)-3-[(4-hydroxy-cyclohexyl)-(4-methyl-cyclohexanecarbonyl)-amino]-thiophene-2-carboxylic acid] showed an IC50 of less than 5 µM.
`CC1CCC(C(=O)N(c2cc(-c3ccccc3)sc2C(=O)O)C2CCN(C)C(=O)C2)CC1` (centres unmarked) [Compound 75, 3-[(4-methyl-cyclohexanecarbonyl)-(1-methyl-2-oxo-piperidin-4-yl)-amino]-5-phenyl-thiophene-2-carboxylic acid] showed an IC50 [1] of less than 5 µM.
In the case of `CC1CCC(C(=O)N(c2cc(-c3ccccc3)sc2C(=O)O)C(C)CN=[N+]=[N-])CC1` (centres unmarked) [Compound 43, 3-[(2-azido-1-methyl-ethyl)-(4-methyl-cyclohexanecarbonyl)-amino]-5-phenyl-thiophene-2-carboxylic acid], the IC50 [1] is reported as less than 5 µM.
`CC(C)N(C(=O)[C@H]1CC[C@H](C)CO1)c1cc(-c2ccccc2)sc1C(=O)O` (relative stereo) [Compound 27, 3-[Isopropyl-(trans-5-methyl-tetrahydro-pyran-2-carbonyl)-amino]-5-phenyl-thiophene-2-carboxylic acid] was tested, and the IC50 was less than 5 µM.
In the case of `CC(C)N(C(=O)C1=CC[C@H](C)CC1)c1cc(-c2ccc(F)cc2)sc1C(=O)O` [Compound 26, (4R)-5-(4-Fluoro-phenyl)-3-[isopropyl-(4-methyl-cyclohex-1-enecarbonyl)-amino]-thiophene-2-carboxylic acid], the IC50 is reported as less than 5 µM.
`CC(C)N(C(=O)[C@@H]1CC[C@@H](C)C[C@@H]1O)c1cc(-c2ccc(F)cc2)sc1C(=O)O` [Compound 24] gave an IC50 of less than 5 µM.
With `COc1ccc(CN2CCC(N(c3cc(-c4ccccc4)sc3C(=O)O)C(=O)[C@H]3CC[C@H](C)CC3)CC2=O)cc1` (some centres unmarked) [Compound 42, 3-[[1-(4-methoxy-benzyl)-2-oxo-piperidin-4-yl]-(4-methyl-cyclohexanecarbonyl)-amino]-5-phenyl-thiophene-2-carboxylic acid] the IC50 was less than 5 µM.
For `CC1CCC(C(=O)N(c2cc(-c3ccc(C#N)cc3)sc2C(=O)O)C2CCC(O)CC2)CC1` (centres unmarked) [Compound 61, 5-(4-cyano-phenyl)-3-[(4-hydroxy-cyclohexyl)-(4-methyl-cyclohexanecarbonyl)-amino]-thiophene-2-carboxylic acid], the IC50 was less than 5 µM.
`COc1ccc(-c2cc(N(C(=O)C3CCC(C)CC3)C3CCC(O)CC3)c(C(=O)O)s2)cc1` (centres unmarked) [Compound 60, 3-[(4-hydroxy-cyclohexyl)-(4-methyl-cyclohexanecarbonyl)-amino]-5-(4-methoxy-phenyl)-thiophene-2-carboxylic acid] was tested, and the IC50 was less than 5 µM.
Compound `CC1CCC(C(=O)N(CC2CCCNC2)c2cc(-c3ccccc3)sc2C(=O)O)CC1` (centres unmarked) [Compound 1, 3-{[(2-carboxy-5-phenyl-thiophen-3-yl)-(4-methyl-cyclohexanecarbonyl)-amino]-methyl}-piperidinium; trifluoro-acetate] has an IC50 of less than 5 µM.
Work on `CC1CCC(C(=O)N(c2cc(-c3ccccc3)sc2C(=O)O)C2CCN(C=O)CC2)CC1` (centres unmarked) [Compound 63, 3-[(1-formyl-piperidin-4-yl)-(4-methyl-cyclohexanecarbonyl)-amino]-5-phenyl-thiophene-2-carboxylic acid] yielded an IC50 of less than 5 µM.
